Series [1] relates to Human whole blood. As to the kind of experiment: Observation on hemolysis after mixing whole blood with equal volume of detergent liquid. Also: key: Hml: Hemolyzed; Not hemolyzed; FCD: Failure in chromatographic development. The format is cell-based. Here is the method:
Deionized water, physiological saline (150 mmol/L sodium chloride liquid), and a 10 mmol/L phosphate buffer (pH 7.5, 150 mmol/L sodium chloride) were prepared.
Human whole blood (100 μL) collected using a tube containing heparin anticoagulant was mixed with an equal volume of each detergent liquid (100 μL) to prepare each sample. After 10 minutes from the mixing, hemolysis in each sample was observed visually. The “hemolysis” was judged on the basis of a transparent state caused by a solubilization of erythrocytic membrane and elution of red pigments such as hemoglobin from erythrocytes.
Total concentrations of five detergents in the four mixed liquids were 0.2, 1.0, 5.0, and 20%, respectively.

Series [2] has as its system mite-specific IgE. As to the kind of experiment: Enzyme immunochromatographic measurement of specific IgE in hemolyzed whole-blood-derived sample. More on the design: species or system human.
Method: A nitrocellulose membrane (HF180; pore size=5 to 8 μm; Millipore) was cut into a rectangular piece (5 mm×25 mm). An aqueous solution of extracted mite allergen proteins (1 mg/mL) was applied linearly with a width of 1 mm at the position of 15 mm from an end (upstream) of the membrane. In this connection, the aqueous solution was previously prepared by diluting a Dermatophagoides pteronyssinus extract (Glia) with a 5 mmol/L borate buffer (pH 8.5) and dialyzing the diluted solution.
A plastic adhesive sheet (BioDot) was cut into a rectangular piece (5 mm×60 mm). […] In this connection, adjacent pieces attached on the adhesive sheet were overlapped with each other at a width of approximately 1 mm.
Each aliquot (50 μL) of whole-blood-derived samples prepared by hemolysis and solubilization was dispensed into each well of a microplate. […]
As the above samples, sample 1 (mite-specific IgE=0 IU/mL), sample 2 (mite-specific IgE=3 IU/mL), and sample 3 (mite-specific IgE=10 IU/mL) were used. The amounts of mite-specific IgE were measured by a conventional quantitative analysis (AlaSTAT specific IgE antibody measuring kit; obtained from Iatron and manufactured by DPC, US) and shown by IU/mL, an international standard unit.
The mark [3] stands for this setting: Example 1, detergent liquid 1% (final half), visual, 10 min after mixing.
[4] abbreviates: Example 1, detergent liquid 5% (final half), visual, 10 min after mixing.
Setting [5] is: Example 1, detergent liquid 20% (final half), visual, 10 min after mixing.
[6] abbreviates: Example 2, detergent liquid 1% (final half).
Setting [7] is: Example 2, detergent liquid 5% (final half).
Where [8] appears, read: Example 2, detergent liquid 20% (final half).

Turning to “polyoxyethylene laurylether [Emulgen 108]”, the Hemolysis result in series [1] (setting [3]), in series [1] (setting [4]), in series [1] (setting [5]), in series [1] (setting [6]), in series [1] (setting [7]) and in series [1] (setting [8]) was “Hml” throughout.

In the case of `C[C@H](CCC(=O)NCCC[N+](C)(C)CCCS(=O)(=O)[O-])[C@H]1CC[C@H]2[C@@H]3[C@H](O)C[C@@H]4C[C@H](O)CC[C@]4(C)[C@H]3C[C@H](O)[C@]12C` [CHAPS, 3-[(3-cholamido-propyl)dimethyl-ammonio]propanesulfonic acid], the Hemolysis result in series [1] (setting [3]), in series [1] (setting [4]), in series [1] (setting [5]), in series [1] (setting [6]), in series [1] (setting [7]) and in series [1] (setting [8]) was “Hml” in each case.

For “polyethylene glycol mono-para-iso-octylphenyl ester [Triton X-100]”, the “solubilization of whole blood, immunochromatographic staining, and immunochromatographic development” value in series [2] is “cannot be performed”. Moreover, the Hemolysis entry in series [1] (setting [3]), in series [1] (setting [4]), in series [1] (setting [5]), in series [1] (setting [6]), in series [1] (setting [7]) and in series [1] (setting [8]) was “Hml” throughout.

With polyoxyethylene monolaurate [Tween 20], the Hemolysis entry in series [1] (setting [5]) and in series [1] (setting [8]) was “Hml” in each case.

In the case of `CCCCCCCCCCCCCCCCCC[N+](C)(C)CC(=O)[O-]` [Amphitol 86B, stearyl betaine], the “solubilization of whole blood, immunochromatographic staining, and immunochromatographic development” value in series [2] is listed as “cannot be performed”. The Hemolysis entry in series [1] (setting [3]), in series [1] (setting [4]), in series [1] (setting [5]), in series [1] (setting [6]), in series [1] (setting [7]) and in series [1] (setting [8]) was “Hml” each time.

On to `CCCCCCCCCCCCOS(=O)(=O)[O-].[Na+]` [sodium dodecyl sulfate], for which the Hemolysis result in series [1] (Example 1, detergent liquid 0.2% (final half), visual, 10 min after mixing) is recorded as “Hml”; in series [1] (setting [3]), “Hml”; in series [1] (setting [4]) it was “Hml”; in series [1] (setting [5]) it was “Hml”; in series [1] (Example 2, detergent liquid 0.2% (final half)), “Hml”; in series [1] (setting [6]), “Hml”. Moreover, the Hemolysis result in series [1] (setting [7]) and in series [1] (setting [8]) was “Hml” in each case.
